Measurements from patent publication US5436243A, “Aminoanthraquinone derivatives to combat multidrug resistance” (priority 1993, dated 1995).
“Also recorded” adds a separate entry of the source. Like-named read-outs stand apart in the source and are kept apart here.

Key:
MDR cell lines = details: literature, cited from earlier work
[1] = tested on: MCF7 Adr 10 human breast cancer cells; test: Vinblastine accumulation assay, MCF7 Adr 10; assay type: cell-based; details: for activity in vinblastine accumulation assay / drug accumulation: MDR MCF7
Protocol: [^3 H] vinblastine ([^3 H] VLB) was added to a final concentration of 100 nM and the cells were incubated for 2.5 hours. At this time, the cells were washed 3 times in ice cold PBS and lysed in buffer containing 0.1% Triton X-100. Net accumulation of [^3 H] vinblastine was expressed as pmol/mg protein. In [^3 H]

MCF7 Adr 10 [2] = test: 72 hour MTT proliferation assay, reversal of drug resistance in MCF7 Adr 10; assay type: cell-based, human; details: [1c] 0 μM; for IC50: Homo sapiens, NCI/ADR-RES
Protocol: (§1) In 72 hour MTT proliferation assays using the following method, compounds 1b, 1c and 1d were assessed for inhibition of Vinca alkaloid and anthracycline drug resistance in MDR MCF7. Additionally, compounds 1b and 1c were assessed for potentiation of sensitivity to Vinca alkaloid and anthracycline drugs in the parental MCF7 WT cell line.
(§2) METHOD: 5000 cells per well were plated in 100 μl of IMDM containing 10% FCS and allowed to adhere overnight. The following day the cells were treated with N-substituted 1,4-diaminoanthraquinones and exposed to graded concentrations of antineoplastic agents. 50 μl of IMDM 10% FCS containing either vehicle or N-substituted 1,4-diaminoanthraquinones at 3 times the final tested concentration was added to cells at timed intervals. The plates were incubated for 2 hours at 37° C. to allow maximal cellular accumulation of N-substituted 1,4-diaminoanthraquinones. 40 μl aliquots of IMDM 10% FCS containing either vehicle or graded concentrations of antineoplastic drugs at 5 times the final concentration were added to treatment groups. Following this addition, 10 μl of IMDM 10% FCS containing either vehicle or N-substituted 1,4-diaminoanthraquinone at 5 times the final concentration was added to each group of wells. The cells were incubated for 72 hours after treatment. At this time the viable cells in each treatment group were estimated in a colorimetric assay by adding MTT and incubating the cells at 37° C. for 3-4 hours. The media in each well was aspirated and MTT formazan was solubilized in isopropyl alcohol acidified with 0.1 N HCl. The absorbance of the solubilized formazan was quantitated using a plate reader spectrophotometer. […] The concentrations of antineoplastic drugs which inhibited proliferation by 50% (IC50's) were estimated by calculating a percentage from the ratio: antineoplastic drug treated groups/control group absorbance and plotting the dose response curve on semilog paper. The IC50 was estimated from this curve. To assess the effects of inhibition of resistance by N-substituted 1,4-diaminoanthraquinones, the percentages were calculated relative to cell groups treated with resistance modifier alone and IC50's calculated as above. A reversal factor was calculated by dividing the IC50 to the antineoplastic drug alone (Control group) by the IC50 to antineoplastic drug in cells treated with resistance modifier.

MCF7 WT [3] = test: Tumor cell clonogenic assay, MCF7 WT; assay type: cell-based, human; details: Homo sapiens, MCF7, read-out: Continuous Exposure IC50, MCF7 WT
Protocol: The tumor cell clonogenic assays measure clonal proliferation of tumor cells. In this assay, 300-500 cells are plated in 10 cm^2 wells, allowed to adhere overnight, and are treated the following day. Tumor cell colonies were counted after 10-12 days of culture. […] The IC50's are calculated as described above for the MTT proliferation assays.

MCF7 Adr 10 [4] = test: Tumor cell clonogenic assay, MCF7 ADR 10; assay type: cell-based, human; details: Homo sapiens, NCI/ADR-RES, read-out: Continuous Exposure IC50, MCF7 ADR 10
Protocol: The tumor cell clonogenic assays measure clonal proliferation of tumor cells. In this assay, 300-500 cells are plated in 10 cm^2 wells, allowed to adhere overnight, and are treated the following day. Tumor cell colonies were counted after 10-12 days of culture. The times of exposure in these experiments are similar; however, the concentrations of FCS are 20% in the CFU-GM assay and 10% in the tumor cell clonogenic assays. The IC50's are calculated as described above for the MTT proliferation assays.

MCF7 WT [5] = test: 72 hour MTT proliferation assay, potentiation of sensitivity in MCF7 WT; assay type: cell-based, human
Protocol: as §1, §2

P-glycoprotein [6] = details: literature; cited from earlier work
P-glycoprotein [7] = details: intact MDR cells and MDR membrane vesicles; cited from earlier work
PKC [8] = test: Micellar PKC screening assay; assay type: biochemical
From the text: The N-substituted diaminoanthraquinone, 1b, (1,4-bis-[[3'-(diethylamino)propyl]amino]anthraquinone), was identified as a PKC inhibitor in the micellar PKC screening assay and in platelets. […] Spectrophotometric analysis of 1b and lc indicated they were excellent chromophores with absorbance maxima at 648 and 600 nm in chloroform, respectively, and extinction coefficients of approximately 20,000. At these wavelengths, there was minimal absorbance by cellular components contained in the chloroform phase. These properties of 1b and 1c were utilized to determine the time course of accumulation of these compounds in MDR MCF7 Adr 10 cells.
The activities of 1a, 1b, 1c and 1d and mitoxantrone, an anthraquinone antineoplastic drug, were evaluated in vinblastine drug accumulation assays performed by the following method. […] Mitoxantrone was identified as a PKC inhibitor in miceliar PKC assays. Compound 1d (1,4-bis-[[2-(4-morpholino)ethyl]amino]anthraquinone) was only evaluated in cellular studies.

[9] = [3H] VLB binding to MCF7 WT membrane vesicles; design: species or system human; details: MCF7 WT vesicles
Protocol: METHOD: Membrane vesicles from sensitive and MDR MCF7 were prepared by nitrogen cavitation and isolated by centrifugation in discontinuous sucrose gradients. […] In the presence of 100 nM [^3 H] VLB and ATP, total and nonspecific binding of [^3 H] VLB (experimentally defined as binding in the presence of a 100 μM unlabeled VLB) was measured. Association of [^3 H] […] In contrast, association of [^3 H] […] VLB with MCF7 WT vesicles.

[10] = target: P-glycoprotein in MCF7 Adr 10 membrane vesicles (Homo sapiens, UniProt P08183)
patients [11] = details: human, in vivo; cited from earlier work
[12] = tested on: patients with tumors clinically resistant to adriamycin; details: cited from earlier work
PKC [13] = details: literature; cited from earlier work
P-glycoprotein [14] = details: cited from earlier work
[15] = Partition in Bligh-Dyer extracts; assay type: physicochemical
Protocol: At these wavelengths, there was minimal absorbance by cellular components contained in the chloroform phase. […] METHOD: […] The monolayers were treated with 25 μM 1b or 1c and incubated at 37° C. After incubating the samples for the times indicated in FIG. 1, the monolayers were washed three times with DPBS and detached using 1 ml of Trypsin-EDTA.An aliquot of the cell suspension was counted using a Coulter Counter and a 0.8 ml aliquot was extracted in a Bligh-Dyer extraction (Bligh et at., Can. J. Biochem. 31:911-916 (1959)). The absorbance of the lower chloroform phase was measured at 648 nm and 600 nm using a spectrophotometer. The amount of 1b or 1c present in the extract was quantitated from a standard curve performed in cell extracts. The data is expressed as nmol anthraquinone/10^6 cells.

casein kinase 2 = test: Casein kinase 2 inhibition; assay type: biochemical
From the text: One possible explanation for stimulation of phosphorylation of P-glycoprotein and MARCKS is that 1c may activate PKC or other cellular kinases by signal transduction pathways that have not yet been identified to phosphorylate these proteins. An alternative explanation for stimulation of phosphorylation of P-glycoprotein and MARCKS is that 1c inhibits protein phosphatases.

[16] = clinical trials; cited from earlier work
patients [17] = details: cited from earlier work

P-glycoprotein in MCF7 Adr 10 membrane vesicles, sequence (P08183 whole entry): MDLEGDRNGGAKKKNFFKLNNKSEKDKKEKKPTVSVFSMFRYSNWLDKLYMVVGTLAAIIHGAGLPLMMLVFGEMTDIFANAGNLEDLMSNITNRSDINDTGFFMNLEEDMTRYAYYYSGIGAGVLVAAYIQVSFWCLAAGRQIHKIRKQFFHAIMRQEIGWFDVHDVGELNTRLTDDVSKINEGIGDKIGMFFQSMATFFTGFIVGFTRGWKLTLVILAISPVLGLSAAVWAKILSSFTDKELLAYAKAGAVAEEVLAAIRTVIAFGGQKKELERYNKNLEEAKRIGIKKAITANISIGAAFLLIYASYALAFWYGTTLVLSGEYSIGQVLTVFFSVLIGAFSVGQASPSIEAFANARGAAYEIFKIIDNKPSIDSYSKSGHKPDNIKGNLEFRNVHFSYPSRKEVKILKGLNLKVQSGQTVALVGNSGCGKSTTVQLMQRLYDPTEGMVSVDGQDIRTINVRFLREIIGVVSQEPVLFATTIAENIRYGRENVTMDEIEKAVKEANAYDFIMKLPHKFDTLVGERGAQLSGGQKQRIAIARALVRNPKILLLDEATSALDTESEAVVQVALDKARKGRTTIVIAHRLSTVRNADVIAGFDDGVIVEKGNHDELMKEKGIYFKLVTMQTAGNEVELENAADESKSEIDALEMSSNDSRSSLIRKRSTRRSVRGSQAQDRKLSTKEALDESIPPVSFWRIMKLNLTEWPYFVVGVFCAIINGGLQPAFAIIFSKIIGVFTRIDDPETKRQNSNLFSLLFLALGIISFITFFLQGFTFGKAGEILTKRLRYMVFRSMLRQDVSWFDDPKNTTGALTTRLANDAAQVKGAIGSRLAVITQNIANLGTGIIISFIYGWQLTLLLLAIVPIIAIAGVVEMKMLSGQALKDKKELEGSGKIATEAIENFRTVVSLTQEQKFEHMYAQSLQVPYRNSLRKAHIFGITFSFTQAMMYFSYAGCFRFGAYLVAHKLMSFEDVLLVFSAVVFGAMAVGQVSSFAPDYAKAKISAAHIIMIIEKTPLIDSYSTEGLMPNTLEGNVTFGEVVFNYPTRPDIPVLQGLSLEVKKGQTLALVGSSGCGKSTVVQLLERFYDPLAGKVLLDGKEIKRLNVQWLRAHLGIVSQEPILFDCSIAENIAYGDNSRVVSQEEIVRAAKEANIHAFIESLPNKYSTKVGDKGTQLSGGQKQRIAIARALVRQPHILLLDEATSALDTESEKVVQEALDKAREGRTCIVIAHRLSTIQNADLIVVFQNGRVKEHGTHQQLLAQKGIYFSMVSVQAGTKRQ

Molecule: CN(C)CCOc1ccc(/C(=C(/CCCl)c2ccccc2)c2ccccc2)cc1 [toremifene]
- drug accumulation and reversal of resistance in MDR cell lines (MDR cell lines): can also modulate resistance of estrogen receptor-negative MDR cell lines

Molecule: O=C1c2ccccc2C(=O)c2c(NCCN3CCOCC3)ccc(NCCN3CCOCC3)c21 [Compound 1d, 1,4-bis-[[2-(4-morpholino)ethyl]amino]anthraquinone]
- minimal effective concentration ([1]; Homo sapiens, NCI/ADR-RES, 100 nM [3H] VLB, 2.5 hours, FIGS. 2 and 3, read-out: lowest concentration which causes a doubling of basal accumulation of vinblastine): 2.5 µM
- activity in vinblastine accumulation assay / drug accumulation [1]: increase vinblastine accumulation in MDR MCF7

Molecule: COc1cccc2c1C(=O)c1c(O)c3c(c(O)c1C2=O)C[C@@](O)(C(=O)CO)C[C@@H]3O[C@H]1C[C@H](N)[C@H](O)[C@H](C)O1 [ADR, reference compound]
- IC50 (MCF7 Adr 10 [2]; average ± SD of 4 experiments, read-out: ADR IC50): 38000 nM
- Reversal Factor (ADR) (MCF7 Adr 10 [2]): 1.0
- IC50 (MCF7 WT [3]): 5.6 nM
- IC50 (MCF7 Adr 10 [4]): 3400 nM

Molecule: CC[C@]1(O)C[C@H]2CN(CCc3c([nH]c4ccccc34)[C@@](C(=O)OC)(c3cc4c(cc3OC)N(C=O)[C@H]3[C@@](O)(C(=O)OC)[C@H](OC(C)=O)[C@]5(CC)C=CCN6CC[C@]43[C@@H]65)C2)C1 [VCR, reference compound]
- IC50 (MCF7 Adr 10 [2]; average ± SD of 3 experiments, read-out: VCR IC50): 3300 nM
- Reversal Factor (VCR) (MCF7 Adr 10 [2]): 1.0
- IC50 (MCF7 WT [5]; Homo sapiens, MCF7, read-out: VCR IC50): 1.9 nM
- Reversal Factor (VCR) (MCF7 WT [5]; [1c] 0 μM, MCF7 WT): 1.0
- IC50 (MCF7 WT [3]): 0.4 nM
- IC50 (MCF7 Adr 10 [4]): 970 nM

Molecule: CCCCCCCCCCCCCC(=O)O[C@@H]1[C@@H](C)[C@@]2(O)[C@@H](C=C(CO)C[C@]3(O)C(=O)C(C)=C[C@@H]23)[C@@H]2C(C)(C)[C@]12OC(C)=O [phorbol myristate acetate]
- phosphorylation of the P-glycoprotein (P-glycoprotein [6]): stimulate phosphorylation of the P-glycoprotein

Molecule: O-acetyl C9 -cyclosporin A [SDZ 33-243]
- [3H] azidopine photoaffinity labeling of P-glycoprotein (P-glycoprotein [7]): inhibit

Molecule: CCCCCCCCNc1ccc(NCCCCCCCC)c2c1C(=O)c1ccccc1C2=O [Compound 1a, 1,4-bis-(octylamino) anthraquinone]
- PKC activity in micellar PKC screening assay (PKC [8]): PKC stimulation
- activity in vinblastine accumulation assay / drug accumulation [1]: inactive; also recorded: did not show significant activity

Molecule: CCC1(O)CC2CN(CCc3c([nH]c4ccccc34)C(C(=O)OC)(c3cc4c(cc3OC)N(C)C3C(O)(C(=O)OC)C(OC(C)=O)C5(CC)C=CCN6CCC43C65)C2)C1 (stereo not drawn) [[^3 H] VLB]
- association of [3H] VLB relative to MCF7 Adr 10 [9]: approximately 15%
- enhancement of [3H] VLB association by addition of ATP [10]: 2-3 fold
- time to maximal association of [3H] VLB [10]: ≤ 15 min

Molecule: COc1ccc(CCN(C)CCC[C@](C#N)(c2ccc(OC)c(OC)c2)C(C)C)cc1OC [D-verapamil]
- toxicity in humans (patients [11]): too toxic to use at high concentrations in humans

Molecule: CN1CCN(CCCN2c3ccccc3Sc3ccc(C(F)(F)F)cc32)CC1 [trifluoperazine]
- drug accumulation and reversal of resistance in MDR cell lines (MDR cell lines): increase drug accumulation and decrease resistance in MDR cell lines
- tumor responses ([12]; 36 patients, oral, with constant infusion adriamycin): One complete response and six partial responses
- dose-limiting toxicity ([12]; human, in vivo): Neurotoxicity of trifluoperazine to the extrapyramidal tracts was dose-limiting
- plasma concentrations below those optimal for modulation of chemoresistance in vitro ([12]; human, in vivo): approximately 10 fold
- phosphorylation of the P-glycoprotein (P-glycoprotein [6]): stimulate phosphorylation of the P-glycoprotein
- PKC inhibition in vitro (PKC [13]): non-specifically inhibit PKC in vitro

Molecule: Cyclosporin A
- inhibition of vincristine and vinblastine binding to P-glycoprotein (P-glycoprotein [14]): competitively inhibits vincristine and vinblastine binding to the P-glycoprotein
- [3H] azidopine photoaffinity labeling of P-glycoprotein (P-glycoprotein [7]): inhibit

Molecule: COc1cccc2c1C(=O)c1c(O)c3c(c(O)c1C2=O)C[C@@](O)(C(C)=O)C[C@@H]3O[C@H]1C[C@H](N)[C@H](O)[C@H](C)O1 [DNR, reference compound]
- IC50 (MCF7 Adr 10 [2]; average ± SD of 3 experiments, read-out: DNR IC50): 6700 nM
- Reversal Factor (DNR) (MCF7 Adr 10 [2]): 1.0

Molecule: O=C1c2c(O)ccc(O)c2C(=O)c2c(NCCNCCO)ccc(NCCNCCO)c21 [mitoxantrone, reference compound]
- partition into the lower chloroform phase [15]: does not partition into the lower chloroform phase
- PKC activity in micellar PKC screening assay (PKC [8]): PKC inhibitor
- inhibitory activity in in vitro PKC assays relative to 1b or 1c (PKC [8]): greater inhibitory activity
- activity in vinblastine accumulation assay / drug accumulation [1]: significant loss of activity; also recorded: did not show significant activity
- activity in vinblastine accumulation assay / drug accumulation ([1]; listed as Mitoxantrone): does not increase drug accumulation
- inhibitory activity in in vitro casein kinase 2 assays relative to 1b or 1c (casein kinase 2): greater inhibitory activity
- drug accumulation and reversal of resistance in MDR cell lines (MDR cell lines): less cross-resistance

Molecule: OCCN1CCN(CC/C=C2\c3ccccc3Sc3ccc(C(F)(F)F)cc32)CC1 [Trans-flupenthixol]
- drug accumulation and reversal of resistance in MDR cell lines (MDR cell lines): increased doxorubicin accumulation and reversed the MDR phenotype more effectively in a number of MDR cell lines than verapamil
- antipsychotic potency relative to the cis isomer [16]: much less potent antipsychotic in clinical trials than the cis isomer

Molecule: COc1ccc(CCN(C)CCCC(C#N)(c2ccc(OC)c(OC)c2)C(C)C)cc1OC (stereo not drawn) [verapamil]
- concentrations inhibiting the MDR phenotype (MDR cell lines): 2 to 10 µM
- drug accumulation and reversal of resistance in MDR cell lines (MDR cell lines): more effective in reversal of resistance to anticancer drugs in other studies
- drug accumulation and reversal of resistance in MDR cell lines (MDR cell lines; listed as Verapamil): increases in accumulation and decreases in resistance to natural product chemotherapeutic drugs
- dose-limiting toxicity (patients [17]): dose-limiting cardiac toxicity
- PKC inhibition in vitro (PKC [13]): non-specifically inhibit PKC in vitro
